Results reported in patent EP0378285A1, “Substituted alkenes, processes for their preparation and their use as pesticides” (priority 1989, dated 1990).

Legend:
Type in all cases: in vivo
[1] = test system: brown rice-hoppers (Niliparvata lugens Stal); experiment: Use Example B: activity in prophylactic treatment of leaves against brown rice-hoppers; conditions: 48 h, read-out: activity
Source text: Activity in prophylactic treatment of leaves against brown rice-hoppers (Niliparvata lugens Stal)
Rice seedlings (Oryzae sativa L.) in the two leaf stage (about 10 per polystyrene pot of size 6.5 x 6.5 cm) were either untreated or […] until dripping wet, with an aqueous preparation containing 0.1 % of active material. After drying the sprayed leaves, a transparent cylinder was placed over each pot and through an opening, about 30 brown rice-hoppers (Niliparvata lugens) in the 4-5 stage, anaesthetised with carbon dioxide, were introduced into each pot. After closing the opening with a fine mesh screen, the pots were kept for 2 days at 28° C and 16 hours/day of light in the glasshouse, the amount of dead hoppers was determined. The percentage mortality was then estimated and the activity calculated using Abbott's method in comparison with the untreated controls.

[2] = test system: corn rootworm (Diabrotica undecimpunctata); experiment: Use Example D: activity against eggs/larvae of the corn rootworm; conditions: Diabrotica undecimpunctata, 168 h; aqueous emulsion 0.1%, 0.2 ml pipetted into soil; 7 days at 25 C; death of eggs or newly hatched larvae
Procedure: Activity against eggs/larvae of the corn rootworm (Diabrotica undecimpunctata)
The compounds of the invention were made up as aqueous emulsions at a concentration of 0.1%. Into the soil in polystyrene petri dishes, containing maize seedlings (1 seedling/dish) and ca. 50 eggs of the corn rootworm (Diabrotica undecimpunctata) were pipetted 0.2 ml of these preparations. The closed dishes were left at 25 C under extended daylight conditions for 7 days. The criterion for judging the activity was the death of eggs or newly hatched larvae at the end of the test.

[3] = test system: two spotted mite (Tetranychus urticae Koch); experiment: Use Example C: activity in the prophylactic treatment of feed against the two spotted mite; conditions: foliar, 0.1 % aqueous preparation, field bean leaf discs, adults and eggs counted after 3 days at 25 C, larvae after a further 7 days, Abbott's method
Procedure: Activity in the prophylactic treatment of feed against the two spotted mite (Tetranychus urticae Koch)
From the primary leaf of field beans (Phaseolus vulgaris nanus Aschers.) 14 mm diameter discs were cut. Some of these were treated with a 0.1 % aqueous preparations of compounds of the invention and these along side untreated discs were placed on filter papers with the underside of the leaves turned upwards. After drying the test pieces, they were each infested with six adult female Tetranychus urticae and maintained for 3 days at 25 C and 16 hours light per day. The experiment was replicated 4 times. Dead and alive adults were then counted and removed. Similarly the number of eggs laid were counted. After a further 7 days, the number of living larvae were counted, the activity calculated using Abbott's method in comparison with the untreated controls.

Aphis fabae = experiment: Activity in prophylactic treatment of leaf discs against Aphis fabae; conditions: Aphis fabae, foliar, 48 h; 0.1% aqueous preparation; field bean leaf discs infested with wingless stages; 2 days at 25 C; percentage mortality, Abbott's method
Procedure: From the primary leaf of field beans (Phaseolus vulgaris nanus Aschers.), 24 mm diameter discs were cut. Some of these were treated with a 0.1% aqueous preparations of compounds of the invention and these along side untreated discs were placed on filter papers with the underside of the leaves turned upwards. After drying the test pieces, they were each infested with wingless stages of Aphis fabae (approx 100 per leaf piece). The experiment was replicated 3 times. The leaves were kept on wet filter papers for 2 days at 25 C and 16 hours light per day. The percentage mortality was then estimated and the activity calculated using Abbott's method in comparison with the untreated controls.

[4] = test system: cotton bollworm (Heliothis viriscens); experiment: Use Example H: ovicidal activity against eggs of the cotton bollworm; conditions: aqueous preparation 0.1 %; one day old eggs dipped; four days; % inhibition of hatching of the eggs
Source text: Ovicidal activity against eggs of the cotton bollworm (Heliothis viriscens)
The compounds of the invention were made up as aqueous preparations at a concentration of 0.1 %. One day old eggs that had been laid on filter paper by fertilised female moths were dipped in the preparations until they were completely wet and then placed in closed petri dishes under extended daylight conditions for four days. The % inhibition of hatching of the eggs in comparison with untreated eggs indicates the level of activity.

[5] = test system: cotton bollworm (Heliothis viriscens); experiment: whole plant or invertebrate; conditions: 48 h, read-out: activity
Procedure: Activity against larvae (L1) of the cotton bollworm (Heliothis viriscens)
Compounds of the invention were made up as aqueous preparations at a concentration of 0.1 %. Into these, feed material was dipped for 2 seconds. After drying the feed material was put into into polystyrene petri dishes. After an hour, 10 L1 of the cotton bollworm (Heliothis viriscens) were counted into the dishes. The closed dishes were left for up to 7 days at 25 °C under extended daylight conditions. The % mortality of the larvae after two days indicated the level of activity.

`C=C(C)C(C)(C)COCc1ccc(F)c(Nc2ccccc2)c1` [Example 20, 4-(3-anilino-4-fluorobenzyloxy)-2,3,3-trimethyl-1-butene] showed a mortality at 0.1 % [1] of at least 80%, a mortality at 0.1 % [2] of 80 to 100% and a mortality at 0.1 % [3] of 80 to 100%. For the same compound, the mortality at 0.1 % (Aphis fabae) was at least 80%, the activity [4] was 80 - 100% and the mortality at 0.1 % [5] was 80 to 100%.
